In one assay the test system is HeLa (cervical cancer). Nature of the assay: MTT cytotoxic assay, HeLa. Type of assay: cell-based. The note with it: Homo sapiens, 48 h. As to the method: (§1) The cell lines HeLa (cervical cancer), PC-3 (prostate cancer), HCT116 (colorectal cancer), MCF-7 (breast cancer) and normal human cell line BJ (skin fibroblasts) were used and maintained in DMEM with 5% of FBS and gentamicin 50 μg/mL. Cultures were held in 75 cm^2 culture flasks at 37 °C, 5% CO2 and 100% relative humidity, changing media at least twice a week.
(§2) Cells were harvested, counted, and transferred into 96 well plates and incubated for 24 h prior to the addition of the test compounds. Test sample solutions (10 μL) at the desired dilutions were added to the wells containing the cells and incubated for 48 h. Microtitration colorimetric method of MTT reduction was used to determine surviving cells at the end of the treatment period.
(§3) A solution of MTT (0.5 mg/mL) was prepared in PBS and 100 μL of this solution was added to each well after the removal of 100 μL of treatment solution. The plates were incubated at 37 °C for 4 h. The solution in each well, containing media, unmetabolized MTT, and dead cells, was removed by suction and 100 μL of DMSO was added to each well. The DMSO was mixed by pipetting and optical density was recorded using a BioTek Synergy HT microplate reader to measure the absorbance at 570 nm. Percentages of cell survival relative to vehicle control wells (wells containing only cells and DMSO) were calculated.
(§4) Stock solutions (5 mg/mL) were prepared by dissolving pure compounds in DMSO and storing at 4 °C. Serial dilutions with culture media were prepared just prior to addition to test plates. The concentration of DMSO in wells was consistent across dilutions at 0.38% v/v. Staurosporine was used as the positive control and vehicle (DMSO + media) as blank. Control and test compounds (PsG, PsP, PsQ, PsS, PsT, PsU, 3-O-Ac-PsU, seco-PsJ, seco-PsK and IMNGD) were assayed in duplicate for each concentration and replicated for each cell line at concentrations of 5000, 1000, 500, 100, 50, 10, 5 and 1 nM for staurosporine and 0.1, 0.5, 1.0, 2.5, 5.0, 7.5, 10.0, and 20.0 μg/mL for compounds.
(§5) Data were normalized and analyzed using non-linear regression to elucidate IC50 values from sigmoidal dose-response curves. Comparison between cell lines and microorganisms used extra sum-of-squares F test to evaluate IC50 between data sets. P < 0.05 was considered as indicative of significance using GraphPad Software, Prism V. 5.0.
(In general: Tetrazolium dyes change colour on reduction, which living cells bring about.)

For the next assay, the system named is PC-3 (prostate cancer). Nature of the assay: MTT cytotoxic assay, PC-3. Type of assay: cell-based. The note with it: Homo sapiens, PC-3, 48 h. How it is done: as §1, §2, §3, §4, §5
The test system of assay [1] is HCT116 (colorectal cancer). Nature of the assay: MTT cytotoxic assay, HCT116. Type of assay: cell-based. The note with it: Homo sapiens, HCT-116, HCT116, 48 h. How it is done: as §1, §2, §3, §4, §5
In the next assay the test system is MCF-7 (breast cancer). Nature of the assay: MTT cytotoxic assay, MCF-7. Type of assay: cell-based. The note with it: Homo sapiens, MCF7, 48 h. How it is done:
as §1, §2, §3, §4, §5

The next assay concerns BJ (skin fibroblasts). Nature of the assay: MTT cytotoxic assay, normal BJ cells. Type of assay: cell-based, human. The note with it: 48 h. How it is done: as §1, §2, §3, §4, §5
The subject of assay [2] is Staphylococcus aureus ATCC 375. The assay is described as follows: Antimicrobial microdilution assay, S. aureus. Type of assay: cell-based. The note with it: ATCC375, 24 h. As to the method: (§6) Compounds isolated from P. elisabethae were tested against a panel of microorganisms including the bacteria Staphylococcus aureus ATCC 375, Enterococcus faecalis ATCC 10741, Pseudomonas aeruginosa ATCC 14210 and the yeast Candida albicans ATCC 14035. Bacterial strains were cultured in Luria-Bertani Broth (LB) and C. albicans was cultured in Sabouraud dextrose broth (SD), for 18 h at 37 °C and 220 rpm in a humidified incubator.
(§7) The antimicrobial activity was determined by a microdilution method (IC50) in 96-well microtiter plates using LB media for bacteria and SD media for the yeast seeded liquid media. In all cases, a pre-inoculated dilution was made with fresh broth. A volume of 180 μL of each microorganism suspension was inoculated in each well (10^5 cells/mL) and mixed with 20 μL of treatment solutions. Stock solutions were prepared by dissolving pure compounds and controls in 20% DMSO and storing at 4 °C. Penicillin G (S. aureus), vancomycin (E. faecalis), gentamicin (P. aeruginosa) and nystatin (C. albicans) were used as positive controls and vehicle (DMSO + media) as blank. The final DMSO concentration used for dissolving the extracts was less than 20%. Controls and test compounds (PsG, PsP, PsQ, PsS, PsT, PsU, 3-O-Ac-PsU, seco-PsJ, seco-PsK and IMNGD) were assayed in duplicate for each of the following concentrations: 64.0, 32.0, 16.0, 4.0, 1.0, 0.25 and 0.06 μg/mL.
(§8) Microplates were incubated for 24 h at 37 °C and optical density was recorded using a BioTek Synergy HT microplate reader to measure the absorbance at 600 nm. For each experiment, correction for background absorbance was made by subtracting the value for OD600 after the compounds were added (time 0 h). Percentages of microorganism survival relative to vehicle control wells (wells containing only microorganism and DMSO) were calculated. The IC50 of the controls were also determined in parallel experiments in order to control for the sensitivity of the standard test organisms.
as §5
(Dilution methods test growth across graded concentrations, often in twofold steps.)

The subject of assay [3] is Enterococcus faecalis ATCC 10741. Nature of the assay: Antimicrobial microdilution assay, E. faecalis. Type of assay: cell-based. As to the method: as §6, §7, §8, §5
Where [4] appears, read: Enterococcus faecalis, ATCC10741, E. faecalis, microdilution, 24 h, read-out: IC50 ± S.E.

Each structure is given as a SMILES string. Where two headings read alike, the source gives them in different places.

`CC(=O)OC1COC(Oc2c(C)c3c4c(c2O)C(C)CCC4C(C)CC3C=C(C)C)C(O)C1OC(C)=O` (centres unmarked) [3-O-Ac-PsU]: the GI50 (commonly the concentration that inhibits growth by half) with HeLa (cervical cancer) is 44.61 ± 0.35 µM; in the assay with PC-3 (prostate cancer), 26.4 ± 0.31 µM; in assay [1] it was 20.5 ± 0.48 µM; in the assay on MCF-7 (breast cancer), 83.93 ± 0.39 µM; with BJ (skin fibroblasts), 62.03 ± 0.45 µM; with BJ (skin fibroblasts) (listed as 3-O-acetyl-PsU), above 10 µM. Also, the IC50 – broadly, the concentration that inhibits the measured activity by half – in assay [2] amounted to 20.23 ± 0.19 µM; in assay [3] (setting [4]) it was 7.64 ± 0.16 µM.

Regarding `CC1(C)S[C@@H]2[C@H](NC(=O)Cc3ccccc3)C(=O)N2[C@H]1C(=O)O` [Penicillin G, penicillin G, reference compound], in assay [2], the IC50 stood at 1.61 ± 0.08 µM.

In the case of `CC(C)=C[C@@H]1C[C@H](C)[C@H]2CC[C@H](C)c3c(O[C@@H]4O[C@@H](C)[C@@H](O)[C@@H](O)[C@@H]4O)c(O)c(C)c1c32` [PsG], the GI50 was 9.22 ± 0.45 µM in the assay with HeLa (cervical cancer); 8.83 ± 0.54 µM with PC-3 (prostate cancer); 12 ± 0.36 µM in assay [1]; 9.42 ± 0.43 µM in the assay with MCF-7 (breast cancer); 7.62 ± 0.38 µM in the assay on BJ (skin fibroblasts) (Homo sapiens, Skin fibroblast). Further, the IC50 worked out at 4.48 ± 0.18 µM in assay [2] and 3.14 ± 0.22 µM in assay [3] (setting [4]).

As to `CC(C)=C[C@@H]1C[C@H](C)[C@H]2CC[C@H](C)c3c(O)c(O[C@@H]4O[C@@H](C)[C@@H](O)[C@@H](O)[C@@H]4O)c(C)c1c32` [PsP], the GI50 with HeLa (cervical cancer) is 10.3 ± 0.49 µM; in the assay on PC-3 (prostate cancer) it was 13.8 ± 0.58 µM; in assay [1] it was 17.9 ± 0.45 µM; in the assay on MCF-7 (breast cancer), 12.6 ± 0.45 µM; in the assay with BJ (skin fibroblasts), 10.4 ± 0.42 µM; in the assay on BJ (skin fibroblasts) (Homo sapiens, Skin fibroblast), above 10 µM. Besides, the results for the IC50 in assay [2] and in assay [3] (setting [4]) were 14.9 ± 0.2 µM and 37.35 ± 0.29 µM, respectively.

Consider `CC(=O)O[C@H]1[C@@H](O)[C@H](O)[C@H](Oc2c(C)c3c4c(c2O)[C@@H](C)CC[C@@H]4[C@@H](C)C[C@H]3C=C(C)C)O[C@H]1C` [PsQ], for which the GI50 in the assay with HeLa (cervical cancer) is 5.82 ± 0.33 µM; with PC-3 (prostate cancer) it was 7.81 ± 0.35 µM; in assay [1], 7.66 ± 0.27 µM; in the assay on MCF-7 (breast cancer), 8.44 ± 0.41 µM; in the assay with BJ (skin fibroblasts) (Homo sapiens, Skin fibroblast), 4.47 ± 0.31 µM. Further, the results for the IC50 in assay [2] and in assay [3] (setting [4]) were 3.3 ± 0.2 µM and 7.38 ± 0.16 µM, respectively.

Turning to `CC(=O)O[C@@H]1[C@H](Oc2c(C)c3c4c(c2O)[C@@H](C)CC[C@@H]4[C@@H](C)C[C@H]3C=C(C)C)O[C@@H](C)[C@@H](O)[C@H]1O` [PsS], the GI50 with HeLa (cervical cancer) was 13.8 ± 0.39 µM; in the assay with PC-3 (prostate cancer), 52.05 ± 0.31 µM; in assay [1], 33.5 ± 0.33 µM; in the assay with MCF-7 (breast cancer) it was 26.2 ± 0.45 µM. Further, the results for the IC50 in assay [2] and in assay [3] (setting [4]) were 3.89 ± 0.23 µM and 20.2 ± 0.25 µM, respectively.

For the molecule `CC(C)=C[C@@H]1C[C@H](C)[C@H]2CC[C@H](C)c3c(O)c(O[C@@H]4OC[C@@H](O)[C@@H](O)[C@@H]4O)c(C)c1c32` [PsT], the GI50 is 14.6 ± 0.35 µM in the assay with HeLa (cervical cancer); 22 ± 0.46 µM in the assay on PC-3 (prostate cancer); 24.2 ± 0.42 µM in assay [1]; 14.7 ± 0.46 µM with MCF-7 (breast cancer); 12.9 ± 0.37 µM with BJ (skin fibroblasts); above 10 µM with BJ (skin fibroblasts) (Homo sapiens, Skin fibroblast). The IC50 in assay [2] was determined as 5.39 ± 0.25 µM; in assay [3] (setting [4]), 4.38 ± 0.16 µM.

For the molecule `CC(=O)OC1COC(Oc2c(C)c3c4c(c2O)C(C)CCC4C(C)CC3C=C(C)C)C(O)C1O` (centres unmarked) [PsU], the concentration for 50% growth inhibition (GI50) with HeLa (cervical cancer) is 15.6 ± 0.32 µM; with PC-3 (prostate cancer), 24.8 ± 0.34 µM; in assay [1], 23.4 ± 0.4 µM; with MCF-7 (breast cancer), 26.5 ± 0.46 µM; in the assay on BJ (skin fibroblasts) (Homo sapiens, Skin fibroblast) it was 9.35 ± 0.34 µM. The values for the IC50 in assay [2] and in assay [3] (setting [4]) were 2.97 ± 0.17 µM and 3.19 ± 0.25 µM, respectively.

As for `CN[C@@H]1C[C@H]2O[C@@](C)([C@@H]1OC)n1c3ccccc3c3c4c(c5c6ccccc6n2c5c31)C(=O)NC4` [Staurosporine, staurosporine, reference compound], the GI50 in the assay on HeLa (cervical cancer) (footnote ** unit) worked out at 0.1056 ± 0.00041 µM; in the assay on PC-3 (prostate cancer) (footnote ** unit), 0.06182 ± 0.00038 µM; in assay [1] (footnote ** unit), 0.04556 ± 0.00045 µM; in the assay on MCF-7 (breast cancer) (footnote ** unit), 0.1766 ± 0.00038 µM; in the assay with BJ (skin fibroblasts) (Homo sapiens, Skin fibroblast, footnote ** unit), 0.0136 ± 0.00035 µM.

Consider `CN[C@H](CC(C)C)C(=O)N[C@H]1C(=O)N[C@@H](CC(N)=O)C(=O)N[C@H]2C(=O)N[C@H]3C(=O)N[C@H](C(=O)N[C@H](C(=O)O)c4cc(O)cc(O)c4-c4cc3ccc4O)[C@H](O)c3ccc(c(Cl)c3)Oc3cc2cc(c3O[C@@H]2O[C@H](CO)[C@@H](O)[C@H](O)[C@H]2O[C@H]2C[C@](C)(N)[C@H](O)[C@H](C)O2)Oc2ccc(cc2Cl)[C@H]1O` [Vancomycin, vancomycin, reference compound], for which the IC50 in assay [3] (Enterococcus faecalis, ATCC10741, 24 h, read-out: IC50 ± S.E, E. faecalis, microdilution, 24 h) was 4.2 µM; in assay [3] (read-out: IC50 ± S.E, E. faecalis, microdilution, 24 h), 4.21 ± 0.11 µM.

As for `CC(C)=CCC[C@H](C)[C@H]1CC[C@H](C)c2c1cc(C)c(O[C@@H]1OC[C@@H](O)[C@@H](O)[C@@H]1O)c2O` [seco-PsJ], the GI50 with HeLa (cervical cancer) was 21.1 ± 0.37 µM; in the assay on PC-3 (prostate cancer), 37.2 ± 0.41 µM; in assay [1], 31.7 ± 0.32 µM; in the assay with MCF-7 (breast cancer) it was 28 ± 0.51 µM; in the assay on BJ (skin fibroblasts), 15 ± 0.35 µM; in the assay with BJ (skin fibroblasts) (Homo sapiens, Skin fibroblast), above 10 µM. Further, the IC50 in assay [2] was 6.52 ± 0.12 µM; in assay [3] (setting [4]), 4.08 ± 0.19 µM.

On to `CC(C)=CCC[C@H](C)[C@H]1CC[C@H](C)c2c1cc(C)c(O[C@@H]1O[C@@H](C)[C@@H](O)[C@@H](O)[C@@H]1O)c2O` [seco-PsK], for which the GI50 in the assay with HeLa (cervical cancer) is 15.8 ± 0.18 µM; in the assay with PC-3 (prostate cancer), 13.6 ± 0.38 µM; in assay [1], 13.3 ± 0.27 µM; in the assay on MCF-7 (breast cancer) it was 11.5 ± 0.36 µM; in the assay with BJ (skin fibroblasts) (Homo sapiens, Skin fibroblast) it was 8.28 ± 0.29 µM. The IC50 was found to be 4.2 ± 0.16 µM in assay [2] and 3.82 ± 0.21 µM in assay [3] (setting [4]).

The record behind these values is paper PMC3083654, “Cytotoxic and Antimicrobial Activity of Pseudopterosins and seco-Pseudopterosins Isolated from the Octocoral Pseudopterogorgia elisabethae of San Andrés and Providencia Islands (Southwest Caribbean Sea)” (Marine Drugs, 2011).
